Results from patent publication US5633381A, “(Z,Z), (Z,E) and (E,Z) isomers of substituted bis(phenylmethylene)cycloketones” (Berlex Laboratories, Inc., priority 1994, dated 1997).
Where a name gives a salt, the structure may show the parent alone.

How the values were obtained:
Type in all cases: biochemical
Factor Xa (HFXa) = Factor Xa (HFXa) (Homo sapiens, UniProt P00742); experiment: Assay of free Factor Xa: initial rate of cleavage of peptide p-nitroanilide S-2222; settings: free FXa, Tris-HCl pH 7.5, 164 μM S-2222, 3 nM HFXa, room temperature
Chain of Factor Xa (HFXa) (P00742 235-488 limits assumed): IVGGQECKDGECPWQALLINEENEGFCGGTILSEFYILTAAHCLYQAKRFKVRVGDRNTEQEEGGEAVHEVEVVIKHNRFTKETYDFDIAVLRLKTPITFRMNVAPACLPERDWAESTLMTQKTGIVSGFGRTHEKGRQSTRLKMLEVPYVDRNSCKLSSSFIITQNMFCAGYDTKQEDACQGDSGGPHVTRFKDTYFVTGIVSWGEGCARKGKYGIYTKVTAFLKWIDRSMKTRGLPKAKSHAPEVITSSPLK
Chain of Factor Xa (HFXa) (P00742 41-179 limits assumed): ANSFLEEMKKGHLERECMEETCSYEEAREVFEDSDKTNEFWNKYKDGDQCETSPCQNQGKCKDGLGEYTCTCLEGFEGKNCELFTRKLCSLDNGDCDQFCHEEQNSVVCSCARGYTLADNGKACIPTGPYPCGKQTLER
Description: (§1) There are a number of tests which illustrate the activity of the compounds of this invention. Due to the light sensitivity of the test Compounds, experiments were performed under minimally lighted conditions. The tests follow. ASSAY OF FREE FACTOR XA AND THROMBIN Activity of Factor Xa and thrombin (IIa) were determined as the initial rate of cleavage of peptide p-nitroanilide by the enzymes. […] Initial rate of the first 2 minutes was used for calculation of the enzyme activities.

thrombin (IIa) = thrombin (IIa) (Homo sapiens, UniProt P00734); experiment: Assay of free thrombin (IIa): initial rate of cleavage of peptide p-nitroanilide S2302; settings: Tris-HCl pH 7.5, 300 μM S2302, 20 nM thrombin, room temperature
Description: as §1

[1] = tested on: citrated plasma clotting (activated partial thromboplastin time); experiment: Coagulation assay: activated partial thromboplastin time (APTT); settings: human plasma, Actin Reagent, 37° C.
Description: (§2) There are a number of tests which illustrate the activity of the compounds of this invention. Due to the light sensitivity of the test Compounds, experiments were performed under minimally lighted conditions. The tests follow.
(§3) Two coagulation assays, the activated partial thromboplastin time (APTT) and the prothrombin time (PT), were used to evaluate the compounds. An Electra 900C coagulometer with the software package was used. The Actin Reagent (APTT) or Rabbit Brain Thromboplastin (PT) is added to citrated plasma sample in equal volumes (100 μL each) and allowed to incubate for 5 min. at 37° C. […] (100 μL) is added and time to clot noted. Dilution series for compounds undergoing testing were made in human plasma prior to assay.

[2] = tested on: citrated plasma clotting (prothrombin time); experiment: Coagulation assay: prothrombin time (PT); settings: human plasma, Rabbit Brain Thromboplastin, 37° C.
Description: as §2, §3

human FXa = target: T1, human FXa (Homo sapiens, UniProt P00742); experiment: In vitro plasma matrix effect on anti-FX activity (compounds diluted in 100% rat plasma); settings: compound in 100% rat plasma, 30 min incubation, S2222, pH 7.5, room temperature, read-out: Ki (Xa)
T1 construct: 6 nM of human FXa; purchased Enzyme Research Lab; USA
T1 sequence (P00742 235-488 limits assumed): as the sequence (P00742 235-488 limits assumed) above
T1 sequence (P00742 41-179 limits assumed): as the sequence (P00742 41-179 limits assumed) above
Description: as §2
IN VITRO PLASMA MATRIX EFFECT ON ANTI-FX ACTIVITY:
Compound stock solutions (10 mM in DMSO) were diluted in 100% rat plasma in a series of 1 to 3 dilutions in the following concentration ranges: (1) from 300 μM to 1.23 μM; (2) from 10 μM to 0.041 μM; (3) from 100 μM to 0.412 μM. After 30 minutes incubation (in dark) at room temperature, 20 μL of diluted compounds (in rat plasma) were added in duplicate to a 96-well flat-bottom microtiter plate (Dynatech Laboratories, USA). Thirty microliter of assay buffer containing 50 mM Tris HCl, pH 7.5, […], and 0.1% polyethylene glycol 6000 was added to each sample well followed by 100 ul of 6 nM of human FXa (in assay buffer) (Enzyme Research Lab. USA). The plate was mixed in a plate shaker for about 30 seconds. The reaction was started by the addition of 50 ul of 656 uM of chromogenic substrate S2222 in assay buffer (Pharmacia Hepar Inc. USA). FXa activity was measured at […] at room temperature for five minutes at 10 seconds interval in a THERMOmax microtiter plate reader (Molecular Devices). An internal standard was assayed in parallel as control. Initial rate as mOD/min was determined using OD readings in the first two minutes of the reaction. IC50 values were determined with a 4-parameter curve fit program provided by the Molecular Devices' software, SOFTmax 2.32. Ki values were then calculated with the following equation: Ki=IC50 /(1+[S]/Km). […]

SMILES	Ki (Factor Xa (HFXa))	Ki (thrombin (IIa))	Ki (human FXa)	APTT: dose of compound required to produce a 2 fold increase in clot time [1]	PT: dose of compound required to produce a 2 fold increase in clot time [2]
N=C(N)c1ccc(/C=C2\CCCC/C(=C\c3ccc(C(=N)N)cc3)C2=O)cc1 [EX. 1 E,E, E,E-1,3-bis[(4'-(amino(imino)methyl)phenyl)methylene]-2-oxocycloheptane, hydrochloride]	16500 ± 800 nM	6200 ± 530 nM	27000 ± 2600 nM	17.5 µg/mL	> 30 µg/mL
N=C(N)c1ccc(/C=C2/CCCC/C(=C\c3ccc(C(=N)N)cc3)C2=O)cc1 [EX. 2 Z,E, Z,E-1,3-bis[(4'-(amino(imino)methyl)phenyl)methylene]-2-oxocycloheptane, trifluoroacetate]	201 ± 57 nM	132 ± 2 nM	210 ± 34 nM	1.6 µg/mL	3.2 µg/mL
N=C(N)c1ccc(/C=C2\CCC/C(=C\c3ccc(C(=N)N)cc3)C2=O)cc1 [EX. 3 E,E, E,E-1,3-bis[(4'-(amino(imino)methyl)phenyl)methylene]-2-oxocyclohexane, phosphate]	5650 ± 350 nM	2970 ± 480 nM	–	–	–
N=C(N)c1ccc(/C=C2/CCC/C(=C\c3ccc(C(=N)N)cc3)C2=O)cc1 [EX. 4 Z,E, Z,E-1,3-bis[(4'-(amino(imino)methyl)phenyl)methylene]-2-oxocyclohexane, trifluoroacetate]	422 ± 167 nM	115 ± 71 nM	–	–	–
N=C(N)c1ccc(/C=C2\CCCC/C(=C\c3ccc(C(N)=O)cc3)C2=O)cc1 [EX. 5 E,E, E,E-1-(4'-(amino(imino)methyl)phenyl)methylene-3-(4'-(aminocarbonyl)phenyl)methylene-2-oxocycloheptane, hydrochloride]	> 5000 nM	> 5000 nM	–	–	–
N=C(N)c1ccc(C=C2CCCCC(=Cc3ccc(C(N)=O)cc3)C2=O)cc1 [EX. 6 Z,E:E,Z, Z,E/E,Z-1-(4'-(amino(imino)methyl)phenyl)methylene-3-(4'-(aminocarbonyl)phenyl)-methylene-2-oxocycloheptane, trifluoroacetate]	1850 ± 10 nM	380 nM	–	–	–
CNC(=N)c1ccc(/C=C2\CCCC/C(=C\c3ccc(C(=N)N)cc3)C2=O)cc1 [EX. 7 E,E, E,E-1-(4'-(amino(imino)methyl)phenyl)methylene-3-(4'-(N'-methylamino-(imino)methyl)phenyl)methylene-2-oxocycloheptane, hydrochloride]	29000 nM	12900 nM	–	–	–
CNC(=N)c1ccc(C=C2CCCCC(=Cc3ccc(C(=N)N)cc3)C2=O)cc1 [EX. 8 Z,E:E,Z, Z,E/E,Z-1-(4'-(amino(imino)methyl)phenyl)methylene-3-(4'-(N'-methylamino (imino)methyl)phenyl)methylene-2-oxocycloheptane, trifluoroacetate]	504 ± 44 nM	363 ± 19 nM	–	–	–
N=C(N)c1cccc(/C=C2\CCCC/C(=C\c3cccc(C(=N)N)c3)C2=O)c1 [EX. 12 E,E, E,E-1,3-bis[(3'-(amino(imino)methyl)phenyl)methylene]-2-oxocycloheptane, dihydrochloride]	1390 ± 210 nM	2140 ± 150 nM	–	–	–
N=C(N)c1ccc(/C=C2/CCCCCCC/C(=C\c3ccc(C(=N)N)cc3)C2=O)cc1 [EX. 14 Z,E]	509 ± 26 nM	146 ± 27 nM	–	–	–
N=C(N)c1ccc(/C=C2/CCCCCC/C(=C\c3ccc(C(=N)N)cc3)C2=O)cc1 [EX. 16 Z,E, Z,E-1,3-bis[(4'-(amino(imino)methyl)phenyl)methylene]-2-oxocyclononane]	324 ± 48 nM	347 ± 35 nM	–	–	–

Now those with a lower Ki (Factor Xa (HFXa)), led by results:

Ki (Factor Xa (HFXa))	Ki (thrombin (IIa))	Ki (human FXa)	SMILES	APTT: dose of compound required to produce a 2 fold increase in clot time [1]	PT: dose of compound required to produce a 2 fold increase in clot time [2]
143 ± 38 nM	1000 ± 30 nM	–	N=C(N)c1cccc(/C=C2/CCCC/C(=C\c3cccc(C(=N)N)c3)C2=O)c1 [EX. 13 Z,E, Z,E-1,3-bis[(3'-(amino(imino)methyl)phenyl)methylene]-2-oxocycloheptane, trifluoroacetate]	–	–
128 ± 25 nM	198 ± 18 nM	–	N=C(N)c1ccc(/C=C2/CCCCC/C(=C\c3ccc(C(=N)N)cc3)C2=O)cc1 [EX. 15 Z,E, Z,E-1,3-bis[(4'-(amino(imino)methyl)phenyl)methylene]-2-oxocyclooctane]	–	–
111 ± 2 nM	741 ± 161 nM	–	N=C(N)c1ccc(/C=C2/CCCCCCC/C(=C/c3ccc(C(=N)N)cc3)C2=O)cc1 [EX. 14 Z,Z]	–	–
52.1 ± 2.5 nM	107 ± 2 nM	–	N=C(N)c1ccc(/C=C2/CCCC/C(=C/c3ccc(C(N)=O)cc3)C2=O)cc1 [EX. 6 Z,Z, Z,Z-1-(4'-(amino(imino)methyl)phenyl)methylene-3-(4'-(aminocarbonyl)phenyl)-methylene-2-oxocycloheptane, trifluoroacetate]	–	–
29.1 ± 5.8 nM	120000 ± 7000 nM	–	N=C(N)c1ccc(/C=C2/CC(C(=O)O)C/C(=C/c3ccc(C(=N)N)cc3)C2=O)cc1 (stereo not shown) [EX. 11 Z,Z, Z,Z-3,5-bis[(4'-(amino(imino)methyl)phenyl)methylene]-4-oxocyclohexanoic acid, trifluoroacetate]	–	–
28.9 ± 7 nM	1340 ± 370 nM	–	N=C(N)c1ccc(/C=C2/CCC/C(=C/c3ccc(C(=N)N)cc3)C2=O)cc1 [EX. 4 Z,Z, Z,Z-1,3-bis[(4'-(amino(imino)methyl)phenyl)methylene]-2-oxocyclohexane, trifluoroacetate]	–	–
17.8 ± 2.6 nM	1390 ± 140 nM	–	CN(C)C(=N)c1ccc(/C=C2/CCCC/C(=C/c3ccc(C(=N)N)cc3)C2=O)cc1 [EX. 10 Z,Z, Z,Z-1-(4'-(amino(imino)methyl)phenyl)methylene-3-(4'-(N',N'-dimethylamino (imino)methyl)phenyl)methylene-2-oxocycloheptane]	–	–
13.7 ± 5.5 nM	619 ± 193 nM	–	N=C(N)c1ccc(/C=C2/CCCCC/C(=C/c3ccc(C(=N)N)cc3)C2=O)cc1 [EX. 15 Z,Z, Z,Z-1,3-bis[(4'-(amino(imino)methyl)phenyl)methylene]-2-oxocyclooctane]	–	–
12.3 ± 1.8 nM	1580 ± 290 nM	–	C/N=C(\N)c1ccc(/C=C2/CCCC/C(=C/c3ccc(C(=N)N)cc3)C2=O)cc1 [EX. 8 Z,Z, Z,Z-1-(4'-(amino(imino)methyl)phenyl)methylene-3-(4'-(N'-methylamino-(imino)methyl)phenyl)methylene-2-oxocycloheptane, trifluoroacetate]	–	–
6 ± 2.8 nM	527 ± 52 nM	–	N=C(N)c1ccc(/C=C2/CCCCCC/C(=C/c3ccc(C(=N)N)cc3)C2=O)cc1 [EX. 16 Z,Z, Z,Z-1,3-bis[(4'-(amino(imino)methyl)phenyl)methylene]-2-oxocyclononane]	–	–
5.63 ± 1.97 nM	1360 ± 500 nM	–	N=C(N)c1cccc(/C=C2/CCCC/C(=C/c3cccc(C(=N)N)c3)C2=O)c1 [EX. 13 Z,Z, Z,Z-1,3-bis[(3'-(amino(imino)methyl)phenyl)methylene]-2-oxocycloheptane, trifluoroacetate]	–	–
1.12 ± 0.28 nM	525 nM	3.45 ± 0.07 nM	N=C(N)c1ccc(/C=C2/CCCC/C(=C/c3ccc(C(=N)N)cc3)C2=O)cc1 [EX. 2 Z,Z, Z,Z-1,3-bis[(4'-(amino(imino)methyl)phenyl)methylene]-2-oxocycloheptane, trifluoroacetate]	0.3 µg/mL	0.3 µg/mL
